# Results published in a melting point compilation (Tetko et al.; mined from patent text by program, amines drawn as free bases though some values may be those of a salt).
row,SMILES,melting point [°C]
1,CSc1c(C(Cc2ccccc2)C(=O)O)ccc2c3ccccc3n(Cc3ccccc3)c12 (stereo unspecified),154 to 156
2,Oc1ccc(CCCCCCc2ccc(O)cc2)cc1,143 to 144
3,CN1CCN(c2ccc(Nc3ncc4ccc(-c5cccc6c5OCCO6)n4n3)cc2)CC1,212 to 213
4,O=C(c1ccc(F)c(F)c1)N1CCC[C@H](c2nc(-c3ccc([N+](=O)[O-])cc3)no2)C1,138 to 140
5,O=CNc1ccc(SC(CCc2ccc(Cl)cc2)Cn2ccnc2)cc1 (stereo unspecified),91 to 94
6,O=[N+]([O-])c1ccc(NCCSCc2c[nH]cn2)nc1,145 to 147
7,CC1CC(NCC(F)(F)F)=NN1c1ccc(Cl)cc1 (stereo unspecified),63 to 64
8,CCCCC(Cn1cncn1)(NC(C)=O)c1ccc(Cl)cc1 (stereo unspecified),178 to 179
9,CCC(O)(c1cc(F)cc(Sc2ccc3c(-c4ccoc4)cc(C#N)cc3c2)c1)c1nccs1 (stereo unspecified),120 to 122
10,Cc1ccn(-c2cc(Nc3c(Cl)cc(Cl)cc3Cl)nc(C)n2)n1,245 to 247
11,N#Cc1cccc(C2=Nc3cc(O)c(-c4cc(F)ccc4F)cc3NC(=O)C2)c1,> 250
12,NC(=O)C1CCc2[nH]c3ccc(Cl)c(Cl)c3c2C1 (stereo unspecified),246 to 247
13,COc1ccc2oc(=O)c(-c3ccccc3)c(OCCN3CCOCC3)c2c1,118
14,CCCCc1oc2ccc(CO)cc2c1C1(c2ccc(O)cc2)OCCO1,100 to 101
15,CCC(NC(=O)c1ccc(Cl)cc1)NC(=NC#N)Nc1cccnc1 (stereo unspecified),181 to 183
16,O=C(c1ccc(-c2ccccc2)cc1)N1Cc2cccnc2Nc2ccccc21,175 to 177
17,Cn1cc2c(n1)Nc1ccc(Cl)cc1NC2=O,> 260
18,NC(=S)N1CCN(c2ccccc2)CC1,178 to 179
19,CCCCCCCCN1C(=O)C2C3CCC(O3)C2C1=O (stereo unspecified),36 to 37
20,Cn1c(=O)n(-c2cc(N)c(Cl)cc2F)c(=S)n1C,208
21,O=C1CCC2=C1C(c1cccc([N+](=O)[O-])c1)C1=C(CCCS1)N2 (stereo unspecified),> 260
22,CN(C)CC/C=C1/c2ccccc2CCc2ccc(Br)cc21,73 to 75
23,Clc1ccc(CNc2nc(NC3CCCc4ccccc43)c3ccccc3n2)cc1 (stereo unspecified),166 to 167
24,O=c1c2cn(Cc3ccccc3F)c3ccccc3c-2nn1-c1ccc(Cl)cc1,338 to 339

row,SMILES,melting point [°C]
1,NS(=O)(=O)OCCCN1CCC(C(O)(c2ccc(F)cc2)c2ccc(F)cc2)CC1,78 to 81
2,O=C1CCC(N2Cc3c(CNC(=O)c4cccc(Cl)c4)cccc3C2=O)C(=O)N1 (stereo unspecified),266 to 268
3,CCn1ncc(C(=O)c2ccc(Cl)cc2Cl)c1O,144 to 146
4,CC(C)OC(=O)c1cc(-n2c(=O)[nH]c3c(c2=O)CSC3)c(F)cc1Cl,180 to 183
5,CN1c2ccccc2C2CCN(CCC(C(=O)N3CCCCCC3)c3ccccc3)CC21 (stereo unspecified),150
6,CC1(O)C=CC2C3CCC4=CC(=O)CCC4C3C(c3ccc(-c4ccoc4)cc3)CC21C (stereo unspecified),179
7,O=Cc1cc(-c2ccc(F)cc2Cl)ccc1OC(F)(F)F,64
8,CC(=O)OC1CC2C1N(C(C)=O)C(=O)N2C(C)=O (stereo unspecified),148 to 150
9,O=C(NCC1CCC1)NCC1CCC1,153 to 155
10,Cc1ccc2c(c1)c(N1CCN(C(=O)c3ccco3)CC1)c(C#N)c(=O)n2C,231
11,O=C1CC(c2cccc(-n3ccnn3)c2)=Nc2ccc(-c3ccc(F)cc3)cc2N1,218 to 220
12,CCCCCCCN(Cc1ccc(C(C)(C)C)cc1)C(Nc1c(C)cc(C)cc1C)=C1C(=O)COC1=O,141 to 143
13,C[C@H](CI)[C@H]1CC[C@H]2[C@@H](O[Si](C)(C)C(C)(C)C)CCC[C@]12C,40 to 41
14,Nc1ncccc1C(=O)NCC1CCN(C[C@H]2COc3ccc(Cl)cc3O2)CC1,150 to 152
15,O=C(OCC(Cl)(Cl)Cl)N1C2CCC1CC(Sc1ccc(Cl)cc1)C2 (stereo unspecified),70 to 71.5
16,O=C(O)CCCCN(C(=O)c1ccc(Cl)cc1)c1ccccc1-c1ccccc1,170 to 173
17,CC(C)(OCc1nn(C(c2ccccc2)(c2ccccc2)c2ccccc2)c2ccccc12)C(=O)O,179 to 180
18,CN(C)Cc1cc([N+](=O)[O-])cc2c(Nc3cccc(Br)c3)c(C#N)cnc12,223 to 226
19,C#CCCC(=O)Oc1cc(-n2c(OC)nc(C(F)(F)C(F)(F)F)c(F)c2=O)c(F)cc1Cl,107 to 109
20,N=C(N)NCCSCc1nccs1,120 to 122
21,COCC1CN(C(=O)c2cc(OC)c(OC)c(OC)c2)CCN1C(=O)C1=Cc2cc(OC)c(OC)cc2CCC1 (stereo unspecified),137
22,O=C1c2ccc(Nc3ccc(F)cc3F)cc2CCc2c(OC[C@H](O)CO)cccc21,125
23,O=C(CC1NCCCC1O)Cn1cnc2cc(Br)c(Cl)cc2c1=O (stereo unspecified),205

# More lines, now with the values ahead:
row,melting point [°C],SMILES
1,194 to 195,COc1ccccc1OCC(O)CN1CCC(NC(=O)NC(=O)c2ccc(F)cc2)CC1 (stereo unspecified)
2,106,CC#CCOc1ccc(S(=O)(=O)C2(C(=O)O)CCN(Cc3ccc(F)cc3)CC2)cc1
3,261 to 263,O=S(=O)(c1ccccc1)c1c[nH]c2ccncc12
4,110 to 111,NC(C(=O)c1ccccc1)[N+](=O)[O-] (stereo unspecified)
5,225,CC1(C)Oc2ccc(C#N)cc2[C@@H](NC(=O)c2ccc(C(F)(F)F)cc2)[C@@H]1O (relative stereo)
6,> 310,Cc1ccc2c(c1)c(=O)[nH]c1c2c2ccccc2n1C
7,105 to 107,COCOc1ccc(C(=O)c2ccc(OCc3nc(-c4ccccc4)oc3C)cc2)c(O)c1
8,105 to 107,Cc1c(CC(C)(C)C(=O)O)n(Cc2ccc(Cl)cc2)c2ccc(OCc3ccc4ccc(Cl)cc4n3)cc12
9,168 to 171,CC(C)(C)OC(=O)N1CCC(c2ccc3oc(-c4ccc(S(C)(=O)=O)cc4F)nc3c2)CC1
10,175 to 177,CNc1nc(-c2cccc(NC(=O)c3ccccn3)c2)c2cc(OC)c(OC)cc2n1
11,219 to 226,Cc1ccc(Cl)c(Nc2ccccc2-c2nnc(N)s2)c1Cl
12,246,NS(=O)(=O)c1ccc(-c2cccc(-c3nc(-c4ccc(C(F)(F)F)nc4)cc(C(F)F)n3)c2)s1
13,206 to 208,O=C(O)COc1cc(F)ccc1C(=O)NCc1nc2cc(C(F)(F)F)ccc2s1
14,72,CC(C)c1ccc(S(=O)(=O)Nc2ccc(OC(F)(F)F)cc2I)cc1
15,44,CCOC(=O)C=Cc1cc([N+](=O)[O-])ccc1C
16,266 to 268,Cn1c(/C=C/C(=O)O)c(-c2ccccc2)c2ccccc2c1=O
17,181 to 182,O=C1N(Cc2ncccc2C(F)F)c2ccccc2C12COc1cc3c(cc12)OCCO3 (stereo unspecified)
18,99 to 100,Cc1cc(C=Cc2ccccc2OCC2CO2)on1 (stereo unspecified)
19,193 to 195,CCNc1cccc2c1C(=O)c1cccc(NCC)c1C2=O
20,258,O=C1CNC(=O)C(=Cc2cc3ccccc3s2)N1
21,165 to 173,CS(=O)(=O)NC(CCC(O)(Cn1cncn1)c1ccc(F)cc1F)C(=O)O (stereo unspecified)
22,256 to 258,CCNc1nc2cccc(C(=O)OC)c2n1Cc1ccc(-c2ccccc2-c2nnn[nH]2)cc1
23,149 to 150,Nc1ncnc(OCc2ccccc2)c1[N+](=O)[O-]
24,83 to 85,COc1ccc(C2C(C(=O)/C=C/c3ccc(O)c(OC)c3)C(=O)CC(c3ccc(O)c(OC)c3)C2[N+](=O)[O-])cc1 (stereo unspecified)
25,229 to 231,Nc1ccc(Cl)cc1C(=O)Nc1ccc(S(=O)(=O)N2CCOCC2)cc1

row,melting point [°C],SMILES
1,189 to 190,COC(=O)c1ccc(-c2nc(-c3ccc(Cl)cc3)no2)c([N+](=O)[O-])c1
2,106 to 108,CCCC=Cc1c(C)nc(C(C)C)c(CO)c1-c1ccc(F)cc1
3,235 to 239,CCS(=O)(=O)N1CCC(NC(=O)Nc2ccc(OC(F)(F)F)cc2)CC1
4,216 to 218,CN1C(=O)c2cccc3c(S(C)(=O)=O)ccc1c23
5,126 to 129,COC(=O)CC1Sc2ccc(N)cc2CN(CCc2ccccc2)C1=O (stereo unspecified)
6,134 to 136,CCCCNc1cc(C(=O)O)cc(S(N)(=O)=O)c1-c1ccccc1
7,157 to 159,CCCOC(=O)NCCCC1(O)c2ccccc2C=Cc2c(C)cccc21 (stereo unspecified)
8,149 to 150,COc1cc(C(C)C)c2c(c1)S(=O)(=O)N(COc1cc(C(F)(F)F)nn1-c1cccc(C(F)(F)F)n1)C2=O
9,141 to 144,Cc1c(CCN(C)C(=O)OC(C)(C)C)c2cc(S(=O)(=O)c3ccc(C(F)(F)F)cc3)ccc2n1C
10,129 to 131,CCCN(CCCC(=O)Nc1c(C(C)C)nc(C)nc1N(CC)CC)c1ccccc1
11,220 to 222,COc1ccc2sc(C(N)=O)c(Cl)c2c1
12,198 to 200,COc1cc(C)nc(NC(=O)NS(=O)(=O)c2ccccc2C(CF)OC(C)=O)n1 (stereo unspecified)
13,114 to 116,CC(C)(C)C(=O)OCOC(=O)C1N2C(=O)C(NC(=O)C(N)c3ccccc3)C2SC1(C)C (stereo unspecified)
14,189 to 190,CCOc1ccc(C(=O)Nc2ccccc2)cc1N
15,245 to 247,O=CNc1[nH]c(-c2ccc(F)cc2)nc1-c1ccccc1
16,120,COC(=O)c1ccc(C)c(SC(=O)c2ccc3c(c2)C(C)(C)CCC3(C)C)c1
17,193,CC(C)Nc1c(-c2c(F)cc(F)cc2F)c(Cl)nc2ncccc12
18,181 to 183,COc1ccc2c(Cl)nncc2c1
19,119 to 120,C[Si](CCSCCNC(=O)n1cc(F)c(=O)[nH]c1=O)(c1ccccc1)c1ccccc1
20,77 to 80,CCCOc1cc(CCCOc2c(CC(=O)O)cccc2OC)n(Cc2ccc(F)cc2F)n1
21,183 to 185,CNC1(c2ccccc2Cl)C(=O)N(S(=O)(=O)c2ccc(OC)cc2OC)c2c(F)cc(Cl)cc21 (stereo unspecified)
22,105 to 110,CC(C)(C)OC(=O)N[C@@H](Cc1ccc(O)cc1)C(=O)N[C@H](Cc1ccccc1)C(=O)NCC(=O)O
23,280,Cc1ccc(NC(=O)c2ccc(C(=O)Nc3ccccc3N)s2)cc1Nc1nccc(-c2cccnc2)n1
24,107 to 108,CC(C)CC1(C(C)C(=O)NO)CCN(CCc2ccccc2)C1=O (stereo unspecified)
